Results published in paper PMC5296967, “Binding affinity of five PBPs to Ostrinia sex pheromones” (BMC Molecular Biology, 2017).
Where “and” joins values, the source holds several entries; their conditions need not be identical. Identical values can stand only once. Entries after “also recorded” stand apart in the source; their conditions may differ.

Assays:
PBPLma = biological target: PBPLma; parameters: method as in PMID 12529170; settings: read-out: binding affinities; cited from earlier work
recombinant OfurPBP1 = recombinant OfurPBP1 (Ostrinia furnacalis, UniProt E7CC99); assay: Competitive fluorescence binding assay with 1-NPN probe, OfurPBP1; settings: mean ± SE, dash = undetectable interaction; for Ki: pH 7.4, Ki = [IC50]/(1 + [1-NPN]/K1-NPN); for IC50: pH 7.4, displacement of 1-NPN
Experimental: (§1) The 1-NPN probe was excited at 337 nm, and emission spectra were recorded between 380 and 450 nm on a Shimadzu fluorescence spectrophotometer (Shimadzu, Japan). Each trial was run in triplicate, and Scatchard plots of the ratio of bound to unbound ligand were created using Microsoft Excel 2010. Competitive binding assays were performed with each of the OfurPBPs using 1-NPN as the probe. Assay reactions were comprised of 2 µM of each OfurPBP diluted individually in 2.0 ml 20 mM Tris–HCl, pH 7.4, which were then titrated with 1.0 mM increments sex pheromone diluted in methanol to a final concentrations of 1–6 µM. The synthetic standards that correspond to the sex pheromones of O. furnacalis, O. nubilalis and other lepidopteran species were purchased from Sigma-Aldrich (Shanghai, China; Additional file 2: S2). Excitation and emission spectra were recorded from triplicate assays as described above. The binding affinity of each purified OfurPBP to the different sex pheromones was measured by calculation of binding constants via competitive fluorescence-binding assay. In brief, relative fluorescent intensities were analyzed by GraphPad Prism 5 software (GraphPad Software Inc, La Jolla, CA) and calculation was done using the equation: Ki = [IC50]/(1 + [1-NPN]/K1-NPN), where [1-NPN] is the free concentration of 1-NPN and K1-NPN is the dissociation constant of the complex protein/1-NPN [19, 20]. Sex pheromone binding affinity with different PBPs was analyzed using One-way ANOVA in SAS 8.0 (SAS Institute Inc., Cary, NC, USA).

recombinant OfurPBP2 = recombinant OfurPBP2 (Ostrinia furnacalis, UniProt E7CCA0); assay: Competitive fluorescence binding assay with 1-NPN probe, OfurPBP2; settings: dash = undetectable interaction; for IC50: pH 7.4, displacement of 1-NPN, mean ± SE; for Ki: pH 7.4, mean ± SE
Experimental: as §1

recombinant OfurPBP3 = recombinant OfurPBP3 (Ostrinia furnacalis, UniProt E7CCA1); assay: Competitive fluorescence binding assay with 1-NPN probe, OfurPBP3 wild type; settings: pH 7.4; for IC50 / Ki: OfurPBP3 wild type, mean ± SE, dash = undetectable interaction; for IC50: displacement of 1-NPN
Experimental: as §1

recombinant OfurPBP4 = recombinant OfurPBP4 (Ostrinia furnacalis, UniProt E7CCA2); assay: Competitive fluorescence binding assay with 1-NPN probe, OfurPBP4; settings: pH 7.4; for IC50 / Ki: OfurPBP4, mean ± SE, dash = undetectable interaction; for IC50: displacement of 1-NPN
Experimental: as §1

recombinant OfurPBP5 = recombinant OfurPBP5 (Ostrinia furnacalis, UniProt E7CCA3); assay: Competitive fluorescence binding assay with 1-NPN probe, OfurPBP5; settings: pH 7.4; for IC50 / Ki: OfurPBP5, mean ± SE, dash = undetectable interaction; for IC50: displacement of 1-NPN
Experimental: as §1

[1] = biological target: OfurPBP3 mutant M1: I113N (Ostrinia furnacalis, UniProt E7CCA1, I135N); assay: Competitive binding assay, OfurPBP3 mutant M1 I113N; settings: for fold reduction in affinity compared to wild-type OfurPBP3: mutant I113N vs wildtype
Experimental: as §1
(§2) Four amino acids of OfurPBP3 with some of the most negative estimated E total values were mutated using Quick-change lightning site-directed mutagenesis kit (Stratagene, La Jolla, CA, USA); Ile to Asn at position 113 ([…]), m2 Phe to Ser at position 12 (F12S), m3 Ile to Asn at position 52 (I52N), and m4 […] to Arg at position 94 (I94R). The sequence of each primers used to alter the aforementioned sites by nucleotide mismatch are shown in Additional file 3: S3. After initial denaturation at 94 °C for 5 min, the subsequent PCR followed with 30 cycles of 94 °C for 30 s, 56 °C for 30 s, and final extension at 72 °C for 1 min. Changes within site-directed mutant fragments were verified by cloning into the pGEM-T Easy vector (Promega) by Sanger sequencing. All mutated OfurPBPs proteins were expressed and used within in vitro binding assays as described above.

OfurPBP3 mutant M2: F12S = OfurPBP3 mutant M2: F12S (Ostrinia furnacalis, UniProt E7CCA1, F34S); assay: Competitive binding assay, OfurPBP3 mutant M2 F12S
Experimental: as §1, §2

OfurPBP3 mutant M3: I52N = OfurPBP3 mutant M3: I52N (Ostrinia furnacalis, UniProt E7CCA1, I74N); assay: Competitive binding assay, OfurPBP3 mutant M3 I52N
Experimental: as §1, §2

OfurPBP3 mutant M4: I94R = OfurPBP3 mutant M4: I94R (Ostrinia furnacalis, UniProt E7CCA1, L116R); assay: Competitive binding assay, OfurPBP3 mutant M4 I94R
Experimental: as §1, §2

[2] = tested on: OfurPBP1, OfurPBP2, OfurPBP3, OfurPBP4 and OfurPBP5; assay: Competitive binding assay, statements on all five OfurPBPs together; parameters: species or system Ostrinia furnacalis; settings: pH 7.4
Experimental: as §1

[3] = tested on: OfurPBP3 mutants F12S, I52N, I94R, and I113N; assay: Competitive binding assay, statements on all OfurPBP3 mutants together; parameters: species or system Ostrinia furnacalis; settings: for binding to all mutated OfurPBPs (in words): pH 7.4; for fold reduction in OfurPBP3 affinity caused by Ser12, Asn52, Arg94, Asn113 variants: range over the four mutants vs wild type
Experimental: as §1, §2

recombinant OfurPBP5, sequence (E7CCA3 entry or part of it): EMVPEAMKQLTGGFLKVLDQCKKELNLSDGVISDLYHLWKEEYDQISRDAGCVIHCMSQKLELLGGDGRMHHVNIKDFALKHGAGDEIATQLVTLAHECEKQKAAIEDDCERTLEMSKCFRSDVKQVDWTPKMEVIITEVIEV
OfurPBP3 mutant M1: I113N, sequence (E7CCA1 entry or part of it I135N): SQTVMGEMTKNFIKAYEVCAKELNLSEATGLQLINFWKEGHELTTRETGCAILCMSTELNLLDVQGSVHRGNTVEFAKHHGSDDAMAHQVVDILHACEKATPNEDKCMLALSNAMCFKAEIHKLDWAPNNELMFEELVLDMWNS
OfurPBP3 mutant M3: I52N, sequence (E7CCA1 entry or part of it I74N): as the sequence (E7CCA1 entry or part of it I135N) above, with I52N, N113I counted along it
recombinant OfurPBP2, sequence (E7CCA0 entry or part of it): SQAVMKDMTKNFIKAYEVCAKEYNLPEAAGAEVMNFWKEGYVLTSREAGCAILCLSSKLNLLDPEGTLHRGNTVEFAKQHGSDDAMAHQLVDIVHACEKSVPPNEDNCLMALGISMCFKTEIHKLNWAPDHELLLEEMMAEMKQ
OfurPBP3 mutant M4: I94R, sequence (E7CCA1 entry or part of it L116R): as the sequence (E7CCA1 entry or part of it I135N) above, with L94R, N113I counted along it
recombinant OfurPBP3, sequence (E7CCA1 entry or part of it): as the sequence (E7CCA1 entry or part of it I135N) above, with N113I counted along it
recombinant OfurPBP4, sequence (E7CCA2 entry or part of it): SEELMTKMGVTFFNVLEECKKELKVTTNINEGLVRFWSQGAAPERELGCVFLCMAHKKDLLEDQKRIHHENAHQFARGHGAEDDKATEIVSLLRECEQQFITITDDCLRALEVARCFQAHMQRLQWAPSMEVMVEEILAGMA
recombinant OfurPBP1, sequence (E7CC99 entry or part of it): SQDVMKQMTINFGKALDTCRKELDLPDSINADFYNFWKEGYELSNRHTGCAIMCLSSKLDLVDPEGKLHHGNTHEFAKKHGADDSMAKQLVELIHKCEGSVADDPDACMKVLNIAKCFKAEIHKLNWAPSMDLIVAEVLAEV
OfurPBP3 mutant M2: F12S, sequence (E7CCA1 entry or part of it F34S): as the sequence (E7CCA1 entry or part of it I135N) above, with F12S, N113I counted along it

Row | SMILES | Ki (recombinant OfurPBP1) | IC50 (recombinant OfurPBP1) | IC50 (recombinant OfurPBP2) | Ki (recombinant OfurPBP2) | IC50 (recombinant OfurPBP3) | Ki (recombinant OfurPBP3) | IC50 (recombinant OfurPBP4) | Ki (recombinant OfurPBP4) | IC50 (recombinant OfurPBP5) | Ki (recombinant OfurPBP5) | IC50 [1] | IC50 (OfurPBP3 mutant M2: F12S) | IC50 (OfurPBP3 mutant M3: I52N) | IC50 (OfurPBP3 mutant M4: I94R) | binding to all five OfurPBPs (in words) [2] | further results
1 | CC(=O)C(C)O (centres unmarked) [3-hydroxy-butan-2-on] | – | – | – | – | – | – | – | – | – | – | – | – | – | – | – | Kd (PBPLma): 3.8 µM
2 | CC/C=C/CCCCCCCCCCOC(C)=O [E11-14:OAc, (E)-11-Tetradecenyl acetate] | 4.61 ± 0.02 µM | 5.3 ± 0.02 µM | 3.28 ± 0.01 µM | 2.77 ± 0.01 µM | 2.64 ± 0.15 µM | 1.97 ± 0.11 µM | 2.31 ± 0.57 µM | 2.13 ± 0.53 µM | 1.9 ± 0.07 µM | 1.14 ± 0.04 µM | > 6 µM | > 6 µM | > 6 µM | > 6 µM | relatively high affinities | –
3 | CC/C=C/CCCCCCCCCCO [E11-14:OH, (E)-11-Tetradecenol] | > 6 µM | > 6 µM | > 6 µM | – | > 6 µM | > 6 µM | > 6 µM | > 6 µM | > 6 µM | > 6 µM | > 6 µM | > 6 µM | > 6 µM | > 6 µM | weak or lack of detectable binding | binding to wildtype OfurPBP3 (in words) (recombinant OfurPBP3): failed to demonstrate this function; binding to all mutated OfurPBPs (in words) [3]: weak binding affinity
4 | C/C=C/CCCCCCCCCCCOC(C)=O [E12-14:OAc, (E)-12-Tetradecenyl acetate] | 5.01 ± 0.14 µM | 5.77 ± 0.16 µM | 4.88 ± 0.1 µM | 4.12 ± 0.08 µM | 3.81 ± 0.02 µM | 2.85 µM and 2.84 µM | > 6 µM | > 6 µM | > 6 µM | – | > 6 µM | > 6 µM | > 6 µM | > 6 µM | – | binding to OfurPBP4 (in words) (recombinant OfurPBP4): incapable of binding; also recorded: no detectable binding; fold reduction in OfurPBP3 affinity caused by Ser12, Asn52, Arg94, Asn113 variants [3]: 1.7- to 4.6 fold
5 | CCCC/C=C\CCCCCCCCO [Z9-14:OH, (Z)-9-Tetradecenol] | > 6 µM | > 6 µM | > 6 µM | > 6 µM | > 6 µM | > 6 µM | > 6 µM | > 6 µM | > 6 µM | > 6 µM | > 6 µM | > 6 µM | > 6 µM | > 6 µM | weak or lack of detectable binding | binding to wildtype OfurPBP3 (in words) (recombinant OfurPBP3): failed to demonstrate this function; binding to I113N (in words) ([1]; pH 7.4): ability to bind; binding to all mutated OfurPBPs (in words) [3]: weak binding affinity
6 | CC/C=C\CCCCCCCCCCOC(C)=O [Z11-14:OAc, (Z)-11-Tetradecenyl acetate] | 4.08 ± 0.12 µM | 4.69 ± 0.14 µM | 3.49 ± 0.06 µM | 2.95 ± 0.05 µM | 3.27 ± 0.24 µM | 2.44 ± 0.18 µM | 1.18 ± 0.05 µM | 1.09 ± 0.05 µM | 3.64 ± 0.28 µM | 2.18 ± 0.17 µM | > 6 µM | > 6 µM | > 6 µM | > 6 µM | relatively high affinities | fold reduction in affinity compared to wild-type OfurPBP3 [1]: ~8.25 fold
7 | C/C=C\CCCCCCCCCCCOC(C)=O [Z12-14:OAc, (Z)-12-Tetradecenyl acetate] | 4.24 ± 0.82 µM | 4.88 ± 0.94 µM | 4.96 ± 0.23 µM | 4.19 ± 0.09 µM | 3.83 ± 0.06 µM | 2.86 ± 0.04 µM | > 6 µM | – | > 6 µM | – | > 6 µM | > 6 µM | > 6 µM | > 6 µM | – | binding to OfurPBP5 (in words) (recombinant OfurPBP5): weakly; fold reduction in affinity compared to wild-type OfurPBP3 [1]: ~ 2 fold; fold reduction in affinity compared to wild-type OfurPBP3 (OfurPBP3 mutant M2: F12S; mutant F12S vs wildtype): ~ 2 fold; fold reduction in OfurPBP3 affinity caused by Ser12, Asn52, Arg94, Asn113 variants [3]: 1.7- to 4.6 fold
8 | CC(O)C(C)O (centres unmarked) [butane-2,3-diol] | – | – | – | – | – | – | – | – | – | – | – | – | – | – | – | Kd (PBPLma): 2.5 µM
